Source: US20210330611A1, “THERAPY FOR NEUROLOGICAL DISEASES/DISORDERS” (priority 2020, published 2021)
Values joined by “and” are separate entries in the source; they are usually repeats but may differ in a detail not shown here. Equal values may be shown once. Where a name gives a salt, the structure may show the parent alone. Read-outs that look alike come from different tables or passages of the source.

Assays:
[1] = test system: fibrin-induced microglia activation; test: Image-based assay of fibrin-induced microglia activation (HTS and dose response); type: cell-based, rat; conditions: for inhibition at 10 µM: Rattus norvegicus, Microglia, read-out: Fibrin % inhibition
primary rat microglia [2] = test: Cell toxicity (dead cells, size <150 μm2) in coated fibrin (cFib) assay; conditions: primary microglia HTS;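 also: share of dead cells sized under 150 µm2 at 10 µM in fibrin-stimulated microglia HTS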
primary rat microglia [3] = test system: primary rat microglia
[4] = test system: fibrin- and LPS-induced microglia activation; test: cells; type: cell-based, rat
[5] = test system: LPS-induced microglia activation; test: Image-based assay of LPS-induced microglia activation (HTS and dose response); type: cell-based, rat; conditions: for inhibition at 10 µM: Rattus norvegicus, Microglia, read-out: LPS % inhibition
[6] = primary microglia HTS, fibrin stimulation, compounds at 10 μM
[7] = fibrin assay, dead cells (size <150 μm2)
[8] = quadrant by fibrin and LPS inhibition, HTS at 10 μM
[9] = primary microglia HTS, LPS stimulation, compounds at 10 μM
[10] = fibrin assay, dead cells (size <150 μm2), compounds at 10 μM
[11] = classification by fibrin and LPS inhibition, HTS at 10 μM
[12] = primary microglia HTS, fibrin stimulation, cell size >800 μm2 as marker of activation
[13] = fibrin stimulation, cell size <150 μm2 as marker of toxicity
[14] = classification by fibrin and LPS inhibition in HTS
[15] = primary microglia HTS, LPS stimulation, compounds at 10 μM, 10 µM
[16] = primary microglia HTS, fibrin stimulation, compounds at 10 μM, 10 µM

Structure (SMILES)	Fibrin % cell toxicity (primary rat microglia [2]; [7])	LPS % cell toxicity (primary rat microglia [3]) [%]	Quadrant (FIG. 5b) [4, 8]	LPS % cell toxicity (primary rat microglia [3]; rat) [%]	further results
CC1=NN(c2ccccc2)C(=O)C1	1%	0	Q4		Fibrin % inhibition [1, 6]: −15%; LPS % inhibition [5, 9]: 15%
CN(C)CC[C@@H](c1ccc(Br)cc1)c1ccccn1		0			Fibrin % inhibition [1, 6]: 0%; Fibrin % cell toxicity (primary rat microglia [2]; [10]): 0%; Quadrant (FIG. 5b) [4, 11]: Q4; LPS % inhibition [5, 9]: 10%
O=C(O)CN(CCN(CC(=O)O)CC(=O)O)CCN(CC(=O)O)CC(=O)O		0			Fibrin % inhibition [1, 12]: 11%; Fibrin % cell toxicity (primary rat microglia [2]; [13]): 0%; Quadrant (FIG. 5b) [4, 14]: Q4; LPS % inhibition [5]: −2%
COc1ccc(C[C@H](N)C(=O)N[C@H]2[C@@H](O)[C@H](n3cnc4c(N(C)C)ncnc43)O[C@@H]2CO)cc1.Cl.Cl	66%	52	Q2		LPS % inhibition [5, 9]: 124%
CCCC(C(=O)OCCN(CC)CC)(c1ccccc1)c1ccccc1.Cl		0			Fibrin % inhibition [1, 12]: −10%; Fibrin % cell toxicity (primary rat microglia [2]; [13]): 0%; Quadrant (FIG. 5b) [4, 14]: Q4; LPS % inhibition [5]: 5%
C[C@H](CCC(=O)[O-])[C@H]1CC[C@H]2[C@@H]3C(=O)C[C@@H]4CC(=O)CC[C@]4(C)[C@H]3CC(=O)[C@]12C.[Na+]		1			Fibrin % inhibition [1, 12]: 21%; Fibrin % cell toxicity (primary rat microglia [2]; [13]): 1%; Quadrant (FIG. 5b) [4, 14]: Q4; LPS % inhibition [5]: 28%
Cl.NCC(O)c1ccc(O)cc1 (racemic)	1%	0	Q4		Fibrin % inhibition [1, 6]: −48%; LPS % inhibition [5, 9]: 16%
CCC1(c2ccc(N)cc2)CCC(=O)NC1=O (racemic)	0%	0	Q4		Fibrin % inhibition [1, 6]: 3%; LPS % inhibition [5, 9]: 6%
NCC(CC(=O)O)c1ccc(Cl)cc1 (racemic) [(±)-baclofen, Baclofen]	0%	0	Q4		Fibrin % inhibition [1, 6]: −8%; LPS % inhibition [5, 9]: 9%
C=CC(N)CCC(=O)O (racemic) [(±)-gamma-vinyl Gaba, Vigabatrin]	1%	0	Q4		Fibrin % inhibition [1, 6]: 8%; LPS % inhibition [5, 9]: 12%
NC(Cc1ccc(Cl)cc1)C(=O)O (racemic) [(±)-p-chlorophenylalanine, Fenclonine]	1%	0	Q4		Fibrin % inhibition [1, 6]: 16%; LPS % inhibition [5, 9]: 5%
O=c1cc[nH]c(=S)[nH]1 [2-thiouracil]	1%		Q4	0	inhibition at 10 µM [1, 6]: -15%; inhibition at 10 µM [5, 9]: 7%
CC(O)(CC(=O)O)CC(=O)O [3-Hydroxy-3-Methyl-Glutaric Acid]	0%		Q4	0	inhibition at 10 µM [1, 6]: 9%; inhibition at 10 µM [5, 9]: 8%
CC(=O)Nc1cccc(O)c1 [3-acetamidophenol]	1%		Q4	0	inhibition at 10 µM [1, 6]: 4%; inhibition at 10 µM [5, 9]: 5%
Nc1ccc(C(=O)O)cc1 [4-Aminobenzoic Acid]	1%		Q4	1	inhibition at 10 µM [1, 6]: -31%; inhibition at 10 µM [5, 9]: 13%
CC(=O)Nc1ccc(C(=O)O)cc1 [4-acetamidobenzoic acid]	1%		Q4	0	inhibition at 10 µM [1, 6]: 32%; inhibition at 10 µM [5, 9]: 42%
Nc1nc(NC2CC2)c2ncn([C@H]3C=C[C@@H](CO)C3)c2n1 [Abacavir Sulfate]	1%		Q4	0	inhibition at 10 µM [1, 6]: -2%; inhibition at 10 µM [5, 9]: 3%
CC(=O)NCCCS(=O)(=O)[O-].CC(=O)NCCCS(=O)(=O)[O-].[Ca+2] [Acamprosate Calcium]	1%	0	Q4		Fibrin % inhibition [1, 6]: 12%; LPS % inhibition [5, 9]: 22%
CC(=O)OC1CN2CCC1CC2.Cl (stereo not drawn) [Aceclidine Hydrochloride, Aceclidine]	1%	0	Q4		Fibrin % inhibition [1, 6]: 2%; LPS % inhibition [5, 9]: 0%

Structure (SMILES)	Fibrin % cell toxicity (primary rat microglia [2]; [7])	LPS % cell toxicity (primary rat microglia [3]) [%]	Quadrant (FIG. 5b) [4, 8]	LPS % cell toxicity (primary rat microglia [3]; rat) [%]	further results
CC(=O)NC(CCC(N)=O)C(=O)O (stereo not drawn) [Aceglutamide]	1%		Q4	0	inhibition at 10 µM [1, 6]: 36%; inhibition at 10 µM [5, 9]: 20%
COc1ccc2c(c1)c(CC(=O)OCC(=O)O)c(C)n2C(=O)c1ccc(Cl)cc1 [Acemetacin]	1%		Q4	0	inhibition at 10 µM [1, 6]: -16%; inhibition at 10 µM [5, 9]: 17%
CC(=O)CC(c1ccc([N+](=O)[O-])cc1)c1c(O)c2ccccc2oc1=O (stereo not drawn) [Acenocoumarol, Acenocoumarin]	0%	0	Q4		Fibrin % inhibition [1, 6]: −38%; LPS % inhibition [5, 9]: 14%
CC(=O)c1ccc2c(c1)N(CCCN(C)C)c1ccccc1S2 [Acepromazine]	1%		Q4	1	inhibition at 10 µM [1, 6]: 9%; inhibition at 10 µM [5, 9]: 31%
CC(=O)Nc1ccc(OC(=O)c2ccccc2O)cc1 [Acetaminosalol]	1%		Q4	1	inhibition at 10 µM [1, 6]: -15%; inhibition at 10 µM [5, 9]: 20%
CO[C@H]1O[C@@H]2O[C@@]3(C)CC[C@H]4[C@H](C)CC[C@@H]([C@H]1C)[C@@]24OO3 [Artemether]	1% and 0%		Q4	0	LPS % inhibition [5, 15]: 0% and 4%
COc1ccc(CC2c3cc(OC)c(OC)cc3CC[N+]2(C)CCC(=O)OCCCCCOC(=O)CC[N+]2(C)CCc3cc(OC)c(OC)cc3C2Cc2ccc(OC)c(OC)c2)cc1OC (stereo not drawn) [Atracurium Besylate]	0% and 1%		Q4	0	Fibrin % inhibition [1, 16]: −3% and 2%
C[C@H]1[C@H](NC(=O)/C(=N\OC(C)(C)C(=O)O)c2csc(N)n2)C(=O)N1S(=O)(=O)O [Aztreonam]	1% and 0%		Q4	0	
CCCCOc1ccc(C(=O)CCN2CCCCC2)cc1 [Dyclonine]				0	Fibrin % cell toxicity (primary rat microglia [2]; [10]): 1%; Quadrant (FIG. 5b) [4, 11]: Q4; LPS % inhibition [5, 15]: 12% and 5%
CCOC(=O)c1cncn1[C@H](C)c1ccccc1 [Etomidate]				0	Fibrin % inhibition [1, 16]: −19% and −24%; Fibrin % cell toxicity (primary rat microglia [2]; [10]): 0%; Quadrant (FIG. 5b) [4, 11]: Q4
CSCC[C@H](NC(=O)[C@H](Cc1c[nH]c2ccccc12)NC(=O)CCNC(=O)OC(C)(C)C)C(=O)N[C@@H](CC(=O)O)C(=O)N[C@@H](Cc1ccccc1)C(N)=O [Pentagastrin]		1			Fibrin % cell toxicity (primary rat microglia [2]; [13]): 1%
O=C(O)Cc1ccccc1 [Phenylacetic acid]				0	Fibrin % cell toxicity (primary rat microglia [2]; [13]): 1%; Quadrant (FIG. 5b) [4, 14]: Q4
COc1ccccc1OCC(O)CN1CCN(CC(=O)Nc2c(C)cccc2C)CC1 (stereo not drawn) [Ranolazine, Ranolazine Dihydrochloride]		0			Fibrin % cell toxicity (primary rat microglia [2]; [13]): 0% and 1%; Quadrant (FIG. 5b) [4, 14]: Q4; LPS % inhibition [5]: 12% and 2%
CCN(C)C(=O)Oc1cccc([C@H](C)N(C)C)c1 [Rivastigmine]				0	Fibrin % cell toxicity (primary rat microglia [2]; [13]): 1%; Quadrant (FIG. 5b) [4, 14]: Q4; inhibition at 10 µM ([5]; 48 h): 5%
C#CCN(C)[C@H](C)Cc1ccccc1 [Selegiline]				0	Fibrin % cell toxicity (primary rat microglia [2]; [13]): 0% and 1%; Quadrant (FIG. 5b) [4, 14]: Q4
OC[C@@H](O)[C@@H](O)[C@H](O)[C@@H](O)CO [Sorbitol]				0	Fibrin % cell toxicity (primary rat microglia [2]; [13]): 1% and 0%; Quadrant (FIG. 5b) [4, 14]: Q4
Cc1ccc(O)c([C@H](CCN(C(C)C)C(C)C)c2ccccc2)c1 [Tolterodine]				0	inhibition at 10 µM [1]: -36%; Quadrant (FIG. 5b) [4]: Q4; inhibition at 10 µM [5]: 15%
C[C@@H](c1ncncc1F)[C@](O)(Cn1cncn1)c1ccc(F)cc1F [Voriconazole]				0	inhibition at 10 µM ([1]; primary microglia HTS, 10 μM, fibrin-stimulated, cell size >800 μm^2 as marker of activation): -42%; Quadrant (FIG. 5b) ([4]; HTS of 1907 compounds, quadrant by fibrin and LPS inhibition): Q4; inhibition at 10 µM ([5]; primary microglia HTS, 10 μM, LPS-stimulated, cell size >800 μm^2 as marker of activation): 5%
